Among the data in patent US20080200454A1, “CARBON-LINKED TETRAHYDRO-PYRAZOLO-PYRIDINE MODULATORS OF CATHEPSIN S” (priority 2007, published 2008) are IC50 values, retold here.

Chain of Recombinant human cathepsin S (CatS) (P25774 115-331): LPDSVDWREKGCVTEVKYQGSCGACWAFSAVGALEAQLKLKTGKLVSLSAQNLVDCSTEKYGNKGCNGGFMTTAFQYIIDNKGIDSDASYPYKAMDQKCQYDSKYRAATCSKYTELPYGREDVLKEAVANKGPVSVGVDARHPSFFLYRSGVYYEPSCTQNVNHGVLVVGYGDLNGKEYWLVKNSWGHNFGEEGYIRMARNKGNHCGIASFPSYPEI

The first assay addresses Recombinant human cathepsin S (CatS) (Homo sapiens, UniProt P25774). Nature of the assay: Recombinant human cathepsin S (CatS) inhibition assay, fluorogenic substrate Z-Valine-Valine-Arginine-AMC.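 Also: Baculovirus-expressed CatS in pH 5.0 sodium acetate buffer with DTT and NaCl, fluorescence read each minute over 20 min, inhibition derived from rate slope.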
Details: not given
On to `CS(=O)(=O)N1CCc2c(c(-c3ccc(Cl)c(CCCCN4CCCCC4)c3)nn2CCCN2CCC(N3CCCC3=O)CC2)C1` [Example 110, 1-[1-(3-{3-[4-Chloro-3-(4-piperidin-1-yl-butyl)-phenyl]-5-methanesulfonyl-4,5,6,7-tetrahydro-pyrazolo[4,3-c]pyridin-1-yl}-propyl)-piperidin-4-yl]-pyrrolidin-2-one], for which the IC50 stood at 3030 nM.
Same read-out and setting: the result for `CS(=O)(=O)N1CCc2c(c(-c3ccc(Cl)c(C#Cc4ccc5c(c4)CC(C(=O)N4CCCCC4)NC5)c3)nn2CCCN2CCOCC2)C1` (stereo not shown) [Example 204, 6-({2-Chloro-5-[5-(methylsulfonyl)-1-(3-morpholin-4-ylpropyl)-4,5,6,7-tetrahydro-1H-pyrazolo[4,3-c]pyridin-3-yl]phenyl}ethynyl)-3-(piperidin-1-ylcarbonyl)-1,2,3,4-tetrahydroisoquinoline] reads 120 nM.
`CS(=O)(=O)N1CCc2c(c(-c3ccc(Cl)c(C#Cc4cnc5c(c4)CNCC5)c3)nn2CCCN2CCOCC2)C1` [Example 394, 3-({2-Chloro-5-[5-(methylsulfonyl)-1-(3-morpholin-4-ylpropyl)-4,5,6,7-tetrahydro-1H-pyrazolo[4,3-c]pyridin-3-yl]phenyl}ethynyl)-5,6,7,8-tetrahydro-1,6-naphthyridine]: the IC50 amounted to 3810 nM.
For `NC(=O)C(=O)N1CCc2c(c(-c3ccc(Cl)c(C#Cc4ccc(Cl)c(CNC5CC5)c4)c3)nn2CCCN2CCCCC2)C1` [Example 600, 2-{3-[4-Chloro-3-({4-chloro-3-[(cyclopropylamino)methyl]phenyl}ethynyl)phenyl]-1-(3-piperidin-1-ylpropyl)-1,4,6,7-tetrahydro-5H-pyrazolo[4,3-c]pyridin-5-yl}-2-oxoacetamide], the IC50 was 30 nM.
With `CS(=O)(=O)N1CCc2c(c(-c3ccc(Cl)c(C#Cc4ccc(CNCc5ccc(Cl)cc5)cc4)c3)nn2CCCN2CC3(COC3)C2)C1` [Example 468, 1-{4-[(2-Chloro-5-{5-(methylsulfonyl)-1-[3-(2-oxa-6-azaspiro[3.3]hept-6-yl)propyl]-4,5,6,7-tetrahydro-1H-pyrazolo[4,3-c]pyridin-3-yl}phenyl)ethynyl]phenyl}-N-[(4-chlorophenyl)methyl]methanamine], the IC50 was 190 nM.
As for `CN1CCC(C2CCN(C[C@H](O)Cn3nc(-c4ccc(Cl)c(C#Cc5ccc(Cl)cc5)c4)c4c3CCN(S(C)(=O)=O)C4)CC2)CC1` [Example 240, (2S)-1-[3-{4-Chloro-3-[(4-chlorophenyl)ethynyl]phenyl}-5-(methylsulfonyl)-4,5,6,7-tetrahydro-1H-pyrazolo[4,3-c]pyridin-1-yl]-3-(1′-methyl-4,4′-bipiperidin-1-yl)propan-2-ol], the IC50 is 10 nM.
For the molecule `NC(=O)C(=O)N1CCc2c(c(-c3ccc(Cl)c(C#Cc4ccc(CNCc5ccc(Cl)cc5)cc4)c3)nn2CCCN2C[C@@H]3C[C@H]2CO3)C1` [Example 435, 2-[3-(4-Chloro-3-{[4-({[(4-chlorophenyl)methyl]amino}methyl)phenyl]ethynyl}phenyl)-1-{3-[(1S,4S)-2-oxa-5-azabicyclo[2.2.1]hept-5-yl]propyl}-1,4,6,7-tetrahydro-5H-pyrazolo[4,3-c]pyridin-5-yl]-2-oxoacetamide], the IC50 was determined as 80 nM.
As to `CS(=O)(=O)N1CCc2c(c(-c3ccc(Cl)c(C#Cc4ccc5c(c4)CN[C@@H](C(=O)O)C5)c3)nn2CCCN2CCOCC2)C1` [Example 202, (3R)-7-({2-Chloro-5-[5-(methylsulfonyl)-1-(3-morpholin-4-ylpropyl)-4,5,6,7-tetrahydro-1H-pyrazolo[4,3-c]pyridin-3-yl]phenyl}ethynyl)-1,2,3,4-tetrahydroisoquinoline-3-carboxylic acid], the 50% inhibitory concentration (IC50) was 390 nM.
Take `CN(C)c1ccc2c(n1)n(C1CCN(CC(O)Cn3nc(-c4ccc(C(F)(F)F)c(C#Cc5ccc(Cl)cc5)c4)c4c3CCN(S(C)(=O)=O)C4)CC1)c(=O)n2C` (stereo not shown) [Example 120, 3-[1-(3-{3-[3-(4-Chloro-phenylethynyl)-4-trifluoromethyl-phenyl]-5-methanesulfonyl-4,5,6,7-tetrahydro-pyrazolo[4,3-c]pyridin-1-yl}-2-hydroxy-propyl)-piperidin-4-yl]-5-dimethylamino-1-methyl-1,3-dihydro-imidazo[4,5-b]pyridin-2-one]: the IC50 was determined as 30 nM.

Still in this assay, the particulars now being: CatS IC50.
Regarding `CN(Cc1ccc(Cl)cc1)Cc1ccc(C#Cc2cc(-c3nn(CCCN4CCN(c5ccccc5)CC4)c4c3CN(S(C)(=O)=O)CC4)ccc2Cl)cc1` [Example 490, 1-{4-[(2-Chloro-5-{5-(methylsulfonyl)-1-[3-(4-phenylpiperazin-1-yl)propyl]-4,5,6,7-tetrahydro-1H-pyrazolo[4,3-c]pyridin-3-yl}phenyl)ethynyl]phenyl}-N-[(4-chlorophenyl)methyl]-N-methylmethanamine], the IC50 is 70 nM.
On the same count and under the same terms, the result for `CNC(=O)[C@@H]1Cc2ccc(C#Cc3cc(-c4nn(CCCN5CCOCC5)c5c4CN(S(C)(=O)=O)CC5)ccc3Cl)cc2CN1` [Example 192, (3S)-7-({2-Chloro-5-[5-(methylsulfonyl)-1-(3-morpholin-4-ylpropyl)-4,5,6,7-tetrahydro-1H-pyrazolo[4,3-c]pyridin-3-yl]phenyl}ethynyl)-N-methyl-1,2,3,4-tetrahydroisoquinoline-3-carboxamide] reads 80 nM.
Take `CS(=O)(=O)N1CCc2c(c(-c3ccc(Cl)c(C#Cc4ccc(CNC5CCC5)cc4)c3)nn2CCCN2CCOCC2)C1` [Example 324, N-{[4-({2-Chloro-5-[5-(methylsulfonyl)-1-(3-morpholin-4-ylpropyl)-4,5,6,7-tetrahydro-1H-pyrazolo[4,3-c]pyridin-3-yl]phenyl}ethynyl)phenyl]methyl}cyclobutanamine]: the IC50 came out at 1340 nM.
For `C[C@H]1COCCN1CCCn1nc(-c2ccc(Cl)c(C#Cc3ccc(Cl)c(COCCCO)c3)c2)c2c1CCN(C(=O)C(N)=O)C2` [Example 274, (S)-2-{3-{4-Chloro-3-[4-chloro-3-(3-hydroxy-propoxymethyl)-phenylethynyl]-phenyl}-1-[3-(3-methyl-morpholin-4-yl)-propyl]-1,4,6,7-tetrahydro-pyrazolo[4,3-c]pyridin-5-yl}-2-oxo-acetamide], the IC50 was 40 nM.
Regarding `CC(=O)OCC(=O)N1CCc2c(c(-c3ccc(Cl)c(C#Cc4ccc(Cl)cc4)c3)nn2CCCN2CCOCC2)C1` [Example 142, Acetic acid 2-[3-[4-chloro-3-(4-chloro-phenylethynyl)-phenyl]-1-(3-morpholin-4-yl-propyl)-1,4,6,7-tetrahydro-pyrazolo[4,3-c]pyridin-5-yl]-2-oxo-ethyl ester], the IC50 was determined as 280 nM.
Still for that read-out and setting: as for `CS(=O)(=O)N1CCc2c(c(-c3ccc(Cl)c(C#Cc4cccc(CNCCc5ccccc5)c4)c3)nn2CCCN2CCOCC2)C1` [Example 504, N-{[3-({2-Chloro-5-[5-(methylsulfonyl)-1-(3-morpholin-4-ylpropyl)-4,5,6,7-tetrahydro-1H-pyrazolo[4,3-c]pyridin-3-yl]phenyl}ethynyl)phenyl]methyl}-2-phenylethanamine], the figure is 280 nM.

The same assay, now with this note: read-out: CatS IC50; Table 4; average of results obtained.
`CC(C)(C)OC(=O)N1Cc2cc(C#Cc3cc(-c4nn(CCCN5CCOCC5)c5c4CN(S(C)(=O)=O)CC5)ccc3Cl)ccc2C[C@H]1C(=O)O` [Example 464, (3S)-7-({2-Chloro-5-[5-(methylsulfonyl)-1-(3-morpholin-4-ylpropyl)-4,5,6,7-tetrahydro-1H-pyrazolo[4,3-c]pyridin-3-yl]phenyl}ethynyl)-2-{[(1,1-dimethylethyl)oxy]carbonyl}-1,2,3,4-tetrahydroisoquinoline-3-carboxylic acid]: the IC50 is 630 nM.

What is called IC50 is the concentration at which inhibition is half-maximal.
